By IC50 is commonly meant the concentration that gives 50% inhibition.

Structures are written as SMILES. Some results are limits rather than exact numbers.

Results on 35 compounds are retold here after patent publication US9580416B2, “Inhibitors of Bruton's tyrosine kinase” (PHARMACYCLICS LLC, priority 2014, dated 2017).

The target in the experiment is Btk (Homo sapiens, UniProt Q06187). Nature of the experiment: Btk kinase activity, TR-FRET assay. Type of experiment: biochemical. As to conditions: read-out: Btk (IC50). On the procedure:
Btk kinase activity is determined using a time-resolved fluorescence resonance energy transfer (TR-FRET) methodology. Measurements are performed in a reaction volume of 50 μL using 96-well assay plates. Kinase enzyme, inhibitor, ATP (at the Km for the kinase), and 1 […] (Biotin-AVLESEEELYSSARQ-NH2) are incubated in a reaction buffer composed of 20 mM Tris, 50 mM NaCl, MgCl2 (5-25 mM depending on the kinase), MnCl2 (0-10 mM), 1 mM DTT, 0.1 mM EDTA, 0.01% bovine serum albumin, 0.005% Tween-20, and 10% DMSO at pH 7.4 for one hour. The reaction is quenched by the addition of 1.2 equivalents of EDTA (relative to divalent cation) in 25 μL of 1× Lance buffer (Perkin-Elmer). Streptavidin-APC (Perkin-Elmer) and Eu-labeled p-Tyr100 antibody (Perkin-Elmer) in 1× Lance buffer are added in a 25 μL volume to give final concentrations of 100 nM and 2.5 nM, respectively, and the mixture is allowed to incubate for one hour. The TR-FRET signal is measured on a multimode plate reader with an excitation wavelength (λEx) of 330 nm and detection wavelengths (λEm) of 615 and 665 nm. Activity is determined by the ratio of the fluorescence at 665 nm to that at 615 nm. For each compound, enzyme activity is measured at various concentrations of compound. Negative control reactions are performed in the absence of inhibitor in replicates of six, and two no-enzyme controls are used to determine baseline fluorescence levels. Inhibition constants, Ki(app), ware obtained using the program BatchKi (Kuzmic et al. (2000), Anal. Biochem. 286:45-50). IC50s are obtained according to the equation: IC50={Ki(app)/(1+[ATP]/Km^ATP)}+[E]total/2;
For all kinases, [ATP]=Km^ATP, [Btk]total=0.5 nM and [Lck]total=6 nM.

Sequence of Btk (Q06187 whole entry): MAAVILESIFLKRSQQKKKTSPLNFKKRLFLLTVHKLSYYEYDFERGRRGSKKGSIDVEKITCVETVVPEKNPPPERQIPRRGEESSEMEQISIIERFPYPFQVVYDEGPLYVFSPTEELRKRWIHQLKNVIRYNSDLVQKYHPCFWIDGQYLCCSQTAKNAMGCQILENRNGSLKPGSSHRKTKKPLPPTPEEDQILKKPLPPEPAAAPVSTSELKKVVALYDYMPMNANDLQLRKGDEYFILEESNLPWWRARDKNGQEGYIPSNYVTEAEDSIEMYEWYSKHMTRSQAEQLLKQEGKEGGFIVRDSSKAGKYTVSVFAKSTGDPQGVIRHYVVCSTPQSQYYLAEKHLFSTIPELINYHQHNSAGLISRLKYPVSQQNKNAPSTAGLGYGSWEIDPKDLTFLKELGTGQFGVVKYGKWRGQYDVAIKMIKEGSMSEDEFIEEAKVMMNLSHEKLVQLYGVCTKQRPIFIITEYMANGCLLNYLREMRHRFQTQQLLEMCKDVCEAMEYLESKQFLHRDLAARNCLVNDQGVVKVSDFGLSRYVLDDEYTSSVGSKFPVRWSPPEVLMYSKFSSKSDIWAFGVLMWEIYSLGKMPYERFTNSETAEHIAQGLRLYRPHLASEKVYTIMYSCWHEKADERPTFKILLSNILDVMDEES

For `C=CC(=O)N1CC[C@@H](N(C)c2n[nH]c3nccc(Oc4ccc(Cl)cc4)c23)C1` [compound 2, 1-[(3R)-3-{[4-(4-chlorophenoxy)-1H-pyrazolo[3,4-b]pyridin-3-yl](methyl)amino}pyrrolidin-1-yl]prop-2-en-1-one], the concentration for half-maximal inhibition (IC50) was less than 100 nM.
The same measure for `CN(C)C/C=C/C(=O)N1CC[C@@H](Nc2n[nH]c3nccc(Oc4ccc(Oc5ccccc5)cc4C(N)=O)c23)C1` [compound 41]: 100 to 1000 nM; for `CN(C/C=C/C(=O)N1CC[C@@H](N(C(=O)/C=C/CN(C)C2CC2)c2n[nH]c3ncnc(Oc4ccc(Oc5ccccc5)cc4)c23)C1)C1CC1` [compound 49]: 100 to 1000 nM.
For `CCC(=O)N1CCC[C@@H](N(C(=O)CC)c2n[nH]c3ncnc(Oc4ccc(Oc5ccccc5)cc4)c23)C1` [compound 52], the concentration for half-maximal inhibition (IC50) lay in the range of 100 to 1000 nM.
As to `Nc1ncnc2[nH]nc(-c3ccc(Oc4ccccc4)cc3)c12` [compound 121, 3-(4-phenoxyphenyl)-1H-pyrazolo[3,4-b]pyrimidin-4-amine], the concentration for half-maximal inhibition (IC50) is less than 100 nM.
The value for `CCNC(=O)Nc1ccc(Oc2ccnc3[nH]nc(N[C@@H]4CCCN(C(=O)/C=C/CN(C)C5CC5)C4)c23)cc1` [compound 136] was more than 10000 nM; that for `CN(C/C=C/C(=O)N1CCC[C@@H](Nc2n[nH]c3nccc(Oc4ccc(C(=O)Nc5cccc(C(F)(F)F)c5)cc4)c23)C1)C1CC1` [compound 138, 4-[(3-{[(3R)-1-[(2E)-4-[cyclopropyl(methyl)amino]but-2-enoyl]piperidin-3-yl]amino}-1H-pyrazolo[3,4-b]pyridin-4-yl)oxy]-N-[3-(trifluoromethyl)phenyl]benzamide] was 100 to 1000 nM; that for `CC(C)NC(=O)Nc1ccc(Oc2ccnc3[nH]nc(N[C@@H]4CCCN(C(=O)/C=C/CN(C)C5CC5)C4)c23)cc1` [compound 147] was more than 10000 nM.
The value for `Cc1cnc(-c2cccc(Oc3ccnc4[nH]nc(N[C@@H]5CCCN(C(=O)/C=C/CN(C)C6CC6)C5)c34)c2)s1` [compound 150] was 1000 to 10000 nM.
The value for `Cc1cnc(NC(=O)[C@H]2CC[C@H](Oc3ccnc4[nH]nc(N[C@@H]5CCCN(C(=O)/C=C/CN(C)C6CC6)C5)c34)CC2)s1` [compound 152] was more than 10000 nM; that for `C=CC(=O)N1CCC[C@@H](Nc2n[nH]c3nccc(Oc4ccc(-c5cc(C(F)(F)F)ccn5)cc4)c23)C1` [compound 155] was 100 to 1000 nM; that for `Cc1c[nH]c(NC(=O)c2ccc(Oc3ccnc4[nH]nc(N[C@@H]5CCCN(C(=O)/C=C/CN(C)C6CC6)C5)c34)cc2)n1` [compound 157] was 1000 to 10000 nM.
In the case of `C=CC(=O)N1CCC[C@@H](Nc2n[nH]c3nccc(Oc4ccc(C(=O)N5CCCC(C(F)(F)F)C5)cc4)c23)C1` (some centres unmarked) [compound 160], the IC50 was less than 100 nM.
The value for `CC#CC(=O)N1CCC[C@@H](Nc2n[nH]c3nccc(Oc4ccc(C(=O)N5CCCC(C(F)(F)F)C5)cc4)c23)C1` (some centres unmarked) [compound 163] was 100 to 1000 nM; that for `C=CC(=O)N1CCC[C@@H](Nc2n[nH]c3nccc(Oc4ccc(C(=O)Nc5ncc(C#N)s5)cc4)c23)C1` [compound 166] was less than 100 nM; that for `CC#CC(=O)N1CCC[C@@H](Nc2n[nH]c3nccc(Oc4ccc(C(=O)Nc5ncc(C#N)s5)cc4)c23)C1` [compound 168] was less than 100 nM.
The same measure for `CC#CC(=O)N1CCC[C@@H](Nc2n[nH]c3nccc(Oc4ccc(-c5nc6ncccc6o5)cc4)c23)C1` [compound 170]: 100 to 1000 nM; for `C=CC(=O)N1CC[C@@H](Nc2n[nH]c3nccc(Oc4ccc(C(=O)Nc5cc(C(F)(F)F)ccn5)cc4)c23)C1` [compound 171]: less than 100 nM; for `CC#CC(=O)N1CC[C@@H](Nc2n[nH]c3nccc(Oc4ccc(C(=O)Nc5cc(C(F)(F)F)ccn5)cc4)c23)C1` [compound 174]: less than 100 nM.
As for `CC#CC(=O)N1CCC[C@@H](Nc2n[nH]c3nccc(Oc4ccc(C(=O)Nc5nnc(C)s5)cc4)c23)C1` [compound 180], the half-inhibitory concentration (IC50) was in the range of 1000 to 10000 nM.
As for `CC#CC(=O)N1CCC[C@@H](Nc2n[nH]c3nccc(Oc4ccc(-c5ccc(C(F)(F)F)cn5)cc4)c23)C1` [compound 206, 1-[(3R)-3-[(4-{4-[5-(trifluoromethyl)pyridin-2-yl]phenoxy}-1H-pyrazolo[3,4-b]pyridin-3-yl)amino]piperidin-1-yl]but-2-yn-1-one], the half-inhibitory concentration (IC50) is more than 10000 nM.
The same measure for `C=CC(=O)N1CCC[C@@H](Nc2n[nH]c3nccc(Oc4ccc(C(=O)Nc5ncc(C(F)(F)F)s5)cc4)c23)C1` [compound 208, 4-[(3-{[(3R)-1-(prop-2-enoyl)piperidin-3-yl]amino}-1H-pyrazolo[3,4-b]pyridin-4-yl)oxy]-N-[5-(trifluoromethyl)-1,3-thiazol-2-yl]benzamide]: less than 100 nM.
The same measure for `Cc1nnc(NC(=O)c2ccc(Oc3ccnc4[nH]nc(N[C@@H]5CCCN(C(=O)/C=C/CN(C)C6CC6)C5)c34)cc2)s1` [compound 209, 4-[(3-{[(3R)-1-[(2E)-4-[cyclopropyl(methyl)amino]but-2-enoyl]piperidin-3-yl]amino}-1H-pyrazolo[3,4-b]pyridin-4-yl)oxy]-N-(5-methyl-1,3,4-thiadiazol-2-yl)benzamide]: more than 10000 nM; for `CC#CC(=O)N1CCC[C@@H](Nc2n[nH]c3nccc(Oc4ccc(C(=O)N(C)c5ncc(C)s5)cc4)c23)C1` [compound 210, 4-[(3-{[(3R)-1-(but-2-ynoyl)piperidin-3-yl]amino}-1H-pyrazolo[3,4-b]pyridin-4-yl)oxy]-N-methyl-N-(5-methyl-1,3-thiazol-2-yl)benzamide]: 100 to 1000 nM.
The value for `C=CC(=O)N1CCC[C@@H](Nc2n[nH]c3nccc(Oc4ccc(C(=O)N(C)c5ncc(C)s5)cc4)c23)C1` [compound 211, N-methyl-N-(5-methyl-1,3-thiazol-2-yl)-4-[(3-{[(3R)-1-(prop-2-enoyl)piperidin-3-yl]amino}-1H-pyrazolo[3,4-b]pyridin-4-yl)oxy]benzamide] was less than 100 nM; that for `CN(C/C=C/C(=O)N1CCC[C@@H](Nc2n[nH]c3nccc(Oc4ccc(C(=O)Nc5cc(C(F)(F)F)ccn5)cc4)c23)C1)C1CC1` [compound 212, 4-[(3-{[(3R)-1-[(2E)-4-[cyclopropyl(methyl)amino]but-2-enoyl]piperidin-3-yl]amino}-1H-pyrazolo[3,4-b]pyridin-4-yl)oxy]-N-[4-(trifluoromethyl)pyridin-2-yl]benzamide] was less than 100 nM; that for `C=CC(=O)N1CCC[C@@H](Nc2n[nH]c3nccc(Oc4ccc(-c5nc6ncccc6o5)cc4)c23)C1` [compound 213, 1-[(3R)-3-{[4-(4-{[1,3]oxazolo[4,5-b]pyridin-2-yl}phenoxy)-1H-pyrazolo[3,4-b]pyridin-3-yl]amino}piperidin-1-yl]prop-2-en-1-one] was 100 to 1000 nM.
Regarding `CN(C/C=C/C(=O)N1CCC[C@@H](Nc2n[nH]c3nccc(Oc4ccc(NC(=O)Nc5cc(C(F)(F)F)ccn5)cc4)c23)C1)C1CC1` [compound 214, 3-{4-[(3-{[(3R)-1-[(2E)-4-[cyclopropyl(methyl)amino]but-2-enoyl]piperidin-3-yl]amino}-1H-pyrazolo[3,4-b]pyridin-4-yl)oxy]phenyl}-1-[4-(trifluoromethyl)pyridin-2-yl]urea], the 50% inhibitory concentration (IC50) lay in the range of 100 to 1000 nM.
The same measure for `CN(C/C=C/C(=O)N1CC[C@@H](N2C(=O)CN(c3ccc(Oc4ccccc4)cc3)c3ccnc4[nH]nc2c34)C1)C1CC1` [compound 238]: 100 to 1000 nM; for `CN(C/C=C/C(=O)N1CC[C@@H](N2CC(=O)N(c3ccc(Oc4ccccc4)cc3)c3ccnc4[nH]nc2c34)C1)C1CC1` [compound 239]: less than 100 nM.
Consider `Cc1cc(NC(=O)c2cccc(Oc3ccnc4[nH]nc(N[C@@H]5CCNC5)c34)c2)ccc1C(C)C` [compound 249, (R)—N-(4-isopropyl-3-methylphenyl)-3-(3-(pyrrolidin-3-ylamino)-1H-pyrazolo[3,4-b]pyridin-4-yloxy)benzamide], for which the 50% inhibitory concentration (IC50) fell in the range of 100 to 1000 nM.
The same measure for `Cc1cc(NC(=O)c2cccc(Nc3ccnc4[nH]nc(N[C@@H]5CCCNC5)c34)c2)ccc1C(C)C` [compound 253, (R)—N-(4-isopropyl-3-methylphenyl)-3-(3-(piperidin-3-ylamino)-1H-pyrazolo[3,4-b]pyridin-4-ylamino)benzamide]: 100 to 1000 nM.
The same measure for `O=C(NC1CCCCC1)c1cccc(Oc2ccnc3[nH]nc(N[C@@H]4CCCNC4)c23)c1` [compound 254, (R)—N-cyclohexyl-3-(3-(piperidin-3-ylamino)-1H-pyrazolo[3,4-b]pyridin-4-yloxy)benzamide]: 100 to 1000 nM; for `O=C(c1cccc(Oc2ccnc3[nH]nc(N[C@@H]4CCCNC4)c23)c1)N1CCCCC1` [compound 255, (R)-piperidin-1-yl(3-(3-(piperidin-3-ylamino)-1H-pyrazolo[3,4-b]pyridin-4-yloxy)phenyl)methanone]: 100 to 1000 nM.
The same measure for `O=C(c1cccc(Oc2ccnc3[nH]nc(N[C@@H]4CCCNC4)c23)c1)N1CCOCC1` [compound 256, (R)-morpholino(3-(3-(piperidin-3-ylamino)-1H-pyrazolo[3,4-b]pyridin-4-yloxy)phenyl)methanone]: 100 to 1000 nM.
